Assay results reported in ChEMBL document CHEMBL5537169, “Structure-Activity Relationships and Discovery of (S)-6-Isopropyl-2-methoxy-3-(3-methoxypropoxy)-10-oxo-5,10-dihydro-6H-pyrido[1,2-h][1,7]naphthyridine-9-carboxylic Acid (AB-452), a Novel Orally Available HBV RNA Destabilizer” (J Med Chem, 2024).
Activity calls are given as the source filed them. The rule behind the calls is not given here.

Columns and labels:
[1] = system: Hepatitis B virus; experiment: Antiviral activity against AAV-Hepatitis B virus infected in C57BL/6 mouse assessed as liver HBsAg level at 3 to 30 mg/kg,po administrated once daily for 7 days by enzyme-linked immunoassay; format: functional, organism-based; conditions: dose 3-30 mg/kg, time 7.0 day
[2] = system: Hepatitis B virus; experiment: Antiviral activity against AAV-Hepatitis B virus infected in C57BL/6 mouse assessed as liver total HBV RNA level at 3 to 30 mg/kg,po administrated once daily for 7 days by branched DNA assay; format: functional, organism-based; conditions: dose 3-30 mg/kg, time 7.0 day
[3] = Cardiotoxicity in Langendorff-perfused New Zealand White rabbit heart assessed as increase in QT interval upto 10 uM incubated for 45 mins by ECG analysis; format: toxicity, tissue-based, Oryctolagus cuniculus; conditions: 0.75 h
[4] = Toxicity in rat assessed as NOAEL administrated for 28 days; conditions: in vivo, time 28 day
[5] = system: Hepatitis B virus; experiment: Antiviral activity against AAV-Hepatitis B virus infected in C57BL/6 mouse assessed as serum HBsAg level at 30 mg/kg,po administrated once daily for 7 days by enzyme-linked immunoassay; format: functional; conditions: time 7 day
[6] = Drug accumulation in CD-1 mouse liver at 10 mg/kg,po measured at 0.083 to 24 hrs post administration by LC-MS/MS analysis; format: ADME, organism-based; conditions: in vivo, time 0.083-24 hrs
[7] = Apparent volume of distribution at steady state in CD-1 mouse at 10 mg/kg,po measured at 0.083 to 24 hrs post administration by LC-MS/MS analysis; format: ADME, organism-based; conditions: in vivo, time 0.083-24 hrs
[8] = Tmax in CD-1 mouse at 10 mg/kg,po measured at 0.083 to 24 hrs post administration by LC-MS/MS analysis; format: ADME, organism-based; conditions: in vivo, time 0.083-24 hrs
[9] = Drug accumulation in Sprague-Dawley rat liver at 10 mg/kg,po measured at 0.083 to 24 hrs post administration by LC-MS/MS analysis; format: ADME, organism-based; conditions: in vivo, time 0.083-24 hrs

| Structure (SMILES) | Activity [1] | Activity [2] | Activity [3] | NOAEL at 672 h [4] [mg/kg] | Activity [5] [log10CFU] | Ct [6] [ng/g] | Vdss(app) [7] [L/kg] | Tmax [8] [h] | Ct [9] [ng/g] |
| --- | --- | --- | --- | --- | --- | --- | --- | --- | --- |
| COCCCOc1cc2c(nc1OC)-c1cc(=O)c(C(=O)O)cn1[C@H](C(C)C)C2 | Active | Active | Non-Toxic | 150 | 1.78 | – | – | – | – |
| COCCCOc1cc2c(cc1Cl)-c1cc(=O)c(C(=O)O)cn1[C@H](C(C)C)CO2 | – | – | – | – | – | 425 | 1.1 | 4.1 | 29 |
